Experimental data from patent US7700584B2 (Hangzhou Minsheng Pharmaceuticals Co., Ltd., priority 2004, dated 2010).
Counter-ions that a name gives are not always drawn.

Experiments:
[1] = tested on: Bel-7402 human hepatic carcinoma; assay: In vitro anti-tumor IC50 (MTT), Bel-7402; format: cell-based; details: Table 4; hydrochloride
Protocol: (§1) (1) Single cell suspension was seeded into 96-well plates (the cells was diluted in the PRMI-1640 minimum medium to 3×10^4 cells/ml, […] diluted cells/well). […] The experiments were performed in quadruplicate.
(§2) (2) The medium was removed. Solutions of the anti-tumor agents (50 compounds) were prepared in a freshly prepared medium at serial concentrations. […] of the solution was added into each well. Incubation was continued for 48 hours.
(§3) (3) 20 ug of 2 mg/ml MTT was added into each well, and incubated for 4 hours.
(§4) (4) The medium was removed from the well. The microplates were swiftly turned down to throw-off the medium. […] of DMSO was added into each well, and vortexed at room temperature for 10 minutes.
(§5) (5) OD value (λ=570 nm) was measured with an Enzyme-Linked Detector.
(§6) (6) The graph of cell vitality was plotted, and IC50 was calculated.

[2] = tested on: LLC mouse Lewis lung carcinoma; assay: In vitro anti-tumor IC50 (MTT), LLC; format: cell-based; details: Table 4; hydrochloride
Protocol: as §1, §2, §3, §4, §5, §6

[3] = tested on: mouse grafted liver cancer H22; assay: Activity against mouse grafted liver cancer H22; format: in vivo, Kunming mice; details: for Tumor weight: X ± SD, n = 10; for Average weight (g)-after administration / Average weight(g)-after administration: mouse, in vivo
Summary of the method: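 Male Kunming mice inoculated with liver cancer H22, 10 per group; compounds (10%, 0.4, 0.2 or 0.1 ml/mouse) injected from the day after inoculation on alternate days, 6 doses. Tumours excised the day after last dose; inhibition rate from mean tumour weight versus saline controls; repeated three times.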

[4] = tested on: SMMC-7721 human hepatic carcinoma; assay: In vitro anti-tumor IC50 (MTT), SMMC-7721; format: cell-based; details: Table 4; hydrochloride
Protocol: as §1, §2, §3, §4, §5, §6

[5] = tested on: mouse grafted sarcoma S-180; assay: Activity against mouse grafted sarcoma S-180; format: in vivo, Kunming mice; details: for Inhibition rate (%) / Tumor weight: 6 doses; for Tumor weight: X ± SD, n = 10; for Average weight (g)-after administration / Average weight(g)-after administration: mouse, in vivo, iv
Summary of the method: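 Male Kunming mice inoculated axillarily with S-180, 10 per group, given 10% compound solutions IV at 0.4, 0.2 or 0.1 ml/mouse from the day after inoculation, alternate days, 6 doses. Tumours excised the day after last dose; inhibition rate from mean tumour weight versus saline control; repeated three times.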

mouse lung cancer Lewis = assay: Activity against mouse grafted lung cancer Lewis; format: in vivo, Kunming mice; details: for Inhibition rate (%) / Tumor weight: Lewis; for Tumor weight: X ± SD, n = 10
[6] = tested on: A-549 human lung adenocarcinoma; assay: In vitro anti-tumor IC50 (MTT), A-549; format: cell-based; details: Table 4; hydrochloride
Protocol: as §1, §2, §3, §4, §5, §6

[7] = H22, first experiment, 10 mg/kg i.v., 6 doses
[8] = H22, first experiment, 20 mg/kg i.v., 6 doses
[9] = H22, first experiment, 40 mg/kg i.v., 6 doses
[10] = H22, second experiment, 10 mg/kg
[11] = H22, second experiment, 20 mg/kg
[12] = H22, second experiment, 40 mg/kg
[13] = H22, third experiment, 10 mg/kg
[14] = H22, third experiment, 20 mg/kg
[15] = H22, third experiment, 40 mg/kg
[16] = three different concentrations (40, 20, 10 mg/kg), i.v.
[17] = S-180, first experiment, 10 mg/kg i.v.
[18] = S-180, first experiment, 20 mg/kg i.v.
[19] = S-180, first experiment, 40 mg/kg i.v.
[20] = S-180, second experiment, 10 mg/kg i.v.
[21] = S-180, second experiment, 20 mg/kg i.v.
[22] = S-180, second experiment, 40 mg/kg i.v.

SMILES: CC(C)C1CC23OC1(O)C/C(=C\Nc1ccc(O)cc1)C2CCC3C (stereo not drawn) [Compound 6, Curcumol p-hydroxy aniline hydrochloride]
- IC50 (ug/ml) against tumor cell lines, Bel-7402 [1]: 1.0 µg/mL
- IC50 (ug/ml) against tumor cell lines, LLC [2]: 3.8 µg/mL
- Inhibition rate (%) [3, 7]: 7.0%
- Tumor weight [3, 7]: 2.8 ± 0.37 g
- Inhibition rate (%) [3, 8]: 47.0%
- Tumor weight [3, 8]: 1.60 ± 0.29 g
- Inhibition rate (%) [3, 9]: 61.9%
- Tumor weight [3, 9]: 1.15 ± 0.31 g
- Inhibition rate (%) [3, 10]: 13.9%
- Tumor weight [3, 10]: 2.6 ± 0.37 g
- Inhibition rate (%) [3, 11]: 47.7%
- Tumor weight [3, 11]: 1.58 ± 0.29 g
- Inhibition rate (%) [3, 12]: 60.3%
- Tumor weight [3, 12]: 1.21 ± 0.31 g
- Inhibition rate (%) [3, 13]: 7.3%
- Tumor weight [3, 13]: 2.8 ± 0.37 g
- Inhibition rate (%) [3, 14]: 46.0%
- Tumor weight [3, 14]: 1.63 ± 0.29 g
- Inhibition rate (%) [3, 15]: 56.9%
- Tumor weight [3, 15]: 1.30 ± 0.31 g
- Average weight (g)-after administration ([3]; 10 mg/kg): 21.2 g
- Average weight(g)-after administration ([3]; 10 mg/kg): 21.0 g
- Average weight (g)-after administration ([3]; 20 mg/kg): 20.0 g
- Average weight(g)-after administration ([3]; 20 mg/kg): 22.0 g
- Average weight (g)-after administration ([3]; 40 mg/kg): 21.4 g
- Average weight(g)-after administration ([3]; 40 mg/kg): 22.4 g
- Average weight(g)-after administration ([3]; iv, 10 mg/kg): 22.0 g
- Average weight(g)-after administration ([3]; iv, 20 mg/kg): 22.2 g
- Average weight(g)-after administration ([3]; iv, 40 mg/kg): 22.1 g
- inhibitory effect against mouse grafted liver cancer H22 (in words) [3, 16]: good inhibitory effect
- IC50 (ug/ml) against tumor cell lines, SMMC-7721 [4]: 4.0 µg/mL
- Inhibition rate (%) [5, 17]: 56%
- Tumor weight [5, 17]: 1.1 ± 0.31 g
- Inhibition rate (%) [5, 18]: 68.4%
- Tumor weight [5, 18]: 0.79 ± 0.21 g
- Inhibition rate (%) [5, 19]: 75.2%
- Tumor weight [5, 19]: 0.62 ± 0.34 g
- Inhibition rate (%) [5, 20]: 57.7%
- Tumor weight [5, 20]: 1.1 ± 0.31 g
- Inhibition rate (%) [5, 21]: 68.8%
- Tumor weight [5, 21]: 0.82 ± 0.32 g
- Inhibition rate (%) [5, 22]: 72.7%
- Tumor weight [5, 22]: 0.71 ± 0.44 g
- Average weight (g)-after administration ([5]; 10 mg/kg): 22.3 g
- Average weight(g)-after administration ([5]; 10 mg/kg): 22.3 g
- Average weight (g)-after administration ([5]; 20 mg/kg): 22.9 g
- Average weight(g)-after administration ([5]; 20 mg/kg): 21.9 g
- Average weight (g)-after administration ([5]; 40 mg/kg): 22.0 g
- Average weight(g)-after administration ([5]; 40 mg/kg): 22.0 g
- inhibitory effect against mouse sarcoma S-180 (in words) [5, 16]: good inhibitory effect
- Inhibition rate (%) (mouse lung cancer Lewis; first experiment, 10 mg/kg): 29.5%
- Tumor weight (mouse lung cancer Lewis; first experiment, 10 mg/kg): 2.10 ± 0.37 g
- Inhibition rate (%) (mouse lung cancer Lewis; first experiment, 20 mg/kg): 42.6%
- Tumor weight (mouse lung cancer Lewis; first experiment, 20 mg/kg): 1.71 ± 0.29 g
- Inhibition rate (%) (mouse lung cancer Lewis; first experiment, 40 mg/kg): 51.7%
- Tumor weight (mouse lung cancer Lewis; first experiment, 40 mg/kg): 1.44 ± 0.31 g
- Inhibition rate (%) (mouse lung cancer Lewis; second experiment, 10 mg/kg): 25.3%
- Tumor weight (mouse lung cancer Lewis; second experiment, 10 mg/kg): 1.80 ± 0.37 g
- Inhibition rate (%) (mouse lung cancer Lewis; second experiment, 20 mg/kg): 44.4%
- Tumor weight (mouse lung cancer Lewis; second experiment, 20 mg/kg): 1.34 ± 0.29 g
- Inhibition rate (%) (mouse lung cancer Lewis; second experiment, 40 mg/kg): 50.6%
- Tumor weight (mouse lung cancer Lewis; second experiment, 40 mg/kg): 1.19 ± 0.31 g
- Inhibition rate (%) (mouse lung cancer Lewis; third experiment, 10 mg/kg): 33.3%
- Tumor weight (mouse lung cancer Lewis; third experiment, 10 mg/kg): 1.80 ± 0.37 g
- Inhibition rate (%) (mouse lung cancer Lewis; third experiment, 20 mg/kg): 47.4%
- Tumor weight (mouse lung cancer Lewis; third experiment, 20 mg/kg): 1.42 ± 0.29 g
- Inhibition rate (%) (mouse lung cancer Lewis; third experiment, 40 mg/kg): 52.6%
- Tumor weight (mouse lung cancer Lewis; third experiment, 40 mg/kg): 1.28 ± 0.31 g
- inhibitory effect against mouse lung cancer Lewis (mouse lung cancer Lewis; first of three concentrations (40 mg/kg)): 51.6%
- inhibitory effect against mouse lung cancer Lewis (mouse lung cancer Lewis; second of three concentrations (20 mg/kg)): 44.8%
- inhibitory effect against mouse lung cancer Lewis (mouse lung cancer Lewis; third of three concentrations (10 mg/kg)): 29.4%
- IC50 (ug/ml) against tumor cell lines, A-549 [6]: 2.1 µg/mL
